This note sets out measurements from patent publication US20240238212A1, “LIPID COMPOUNDS AND LIPID NANOPARTICLE COMPOSITIONS” (SUZHOU ABOGEN BIOSCIENCES CO., LTD., priority 2022, published 2024).

Several values for one entry are separate records, joined by “and”; a condition that tells them apart may be missing. Equal entries are not always repeated. Entries after “also recorded” stand apart in the source; their conditions may differ. Where two headings read alike, the source gives them in different places.

A short description of data set [1]: Lipid nanoparticle size and polydispersity by dynamic light scattering. The class given is physicochemical. Particulars: LNP comprising the compound. Summed up: (§1)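 LNPs of cationic lipid:DSPC:cholesterol:PEG-lipid (50:10:38.5:1.5 molar) with mRNA in 10–50 mM citrate pH 4, microfluidic mixing at 1:3 ethanol:aqueous, lipid:mRNA weight ratio ~10:1–30:1, dialysed into DPBS and 0.2 μm filtered. Size by DLS, 173° backscatter; encapsulation efficiency by Ribogreen assay.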

Data set [2] can be described thus: Encapsulation efficiency of lipid nanoparticles (Quant-it Ribogreen RNA assay). The class given is physicochemical. The following applies: LNP comprising the compound. Put shortly:
as §1

A short description of data set [3]: Apparent pKa of LNP formulations (TNS fluorescence assay). Particulars: LNP formulation. The class given is physicochemical. Summed up: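 LNPs (cationic lipid/DSPC/cholesterol/DMG-PEG 50/10/38.5/1.5 mol %) diluted to 0.1 mg/mL total lipid in citrate/phosphate/borate/NaCl buffers spanning pH 3–9 with TNS. Fluorescence (ex 325, em 435 nm) read at room temperature; pKa taken as the pH at half-maximal intensity from sigmoidal fit.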

In data set [4] the test system is human erythropoietin (hEPO) mRNA expression. Kind of data set: Animal Study 1: hEPO mRNA LNPs i.v. in mice, serum EPO by ELISA. The class given is in vivo. The following applies: female ICR mice, 0.5 mg/kg tail vein injection, blood e.g. 6 hours post administration; relative to MC3 LNP. Put shortly: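 Female ICR mice aged 6-8 weeks received LNP-encapsulated hEPO mRNA at 0.5 mg/kg by tail-vein injection, with MC3 LNPs as positive control. Blood was sampled at set time points (e.g., 6 hours) and serum EPO quantified by ELISA. Values are expressed relative to MC3.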
Background: An ELISA detects its analyte on a solid surface through an enzyme-linked reagent.

Data set [5] in a line: Lipid clearance study: lipid remaining in liver tissue by LC-MS/MS. The following applies: mouse liver; for % Dose Remaining in Liver Tissue, 6 h: 6 h after 0.5 mg/kg i.v. bolus dose mRNA; for % Dose Remaining in Liver Tissue, 24 h: 24 h after 0.5 mg/kg i.v. bolus dose mRNA; for % Dose Remaining in Liver Tissue, 48 h: 48 h after 0.5 mg/kg i.v. bolus dose mRNA.
Method: (§3) LNPs were injected into mice via the tail vein (ICR female, IV, 0.5 mg mRNA/kg), then mice were anesthetized under carbon dioxide at different time (e.g., 6 h, 24 h, and 48 h) after administration and sacrificed via cardiac puncture. Liver tissue were collected immediately, and then washed by ice-cold saline. Liver samples were weighed and homogenized in ice water bath by adding pre-chilled 20% methanol-water (v/v) at 2˜8° C. with the ratio of 1:5 (w/v). The homogenized tissue samples were stored in −90˜−60° C. freezer prior to analysis.
(§4) All liver tissue homogenate samples were allowed to thaw at room temperature. An aliquot of 50 μL of sample was added with 50 μL MgCl2 (2M), then added with ACN which contains of Verapamil, 5 ng mL-1 and Glibenclamide, 50 ng mL-1 and Diclofenac, 200 ng mL^−1 and Tolbutamide, 200 ng mL^−1 for protein precipitation, then centrifuged at 13000 rpm for 8 min. Then 100 μL of supernatant was added with 100 μL water, then vortexed well. An aliquot of 5 μL of the mixture was injected into the LC-MS/MS system.
The conditions of data set [6]: mouse, in vivo.
Method: as §3, §4
Data set [7] has as its system luciferase mRNA expression. Kind of data set: Animal Study 2: luciferase mRNA LNPs i.v. in mice, optical imaging. The class given is in vivo. Particulars: female Balb/c mice, 0.25 mg/kg tail vein injection, e.g. 6 hours; relative to MC3 LNP. The procedure:
(§2) Lipid nanoparticles comprising compounds in the following table encapsulating mRNA encoding luciferase were systemically administered to 6-8 week old female Balb/c mice (Charles River Lab, ZheJiang) at 0.25 mg/kg dose by tail vein injection and mice blood were sampled at specific time points (e.g., 6 hours) post administration. Optical imaging was performed using the IVIS Spectrum CT device (PerkinElmer Inc., Paris, France). The luminescence level was evaluated by an ROI applied to the injection site zone (Living Image software, PerkinElmer Inc., Paris, France). In addition to the aforementioned tested groups, lipid nanoparticles comprising dilinoleylmethyl-4-dimethylaminobutyrate (other names: DLin-MC3-DMA or MC3) encapsulating luciferase mRNA were similarly administered at the same dose to age and gender comparative groups of mice as a positive control.
Characteristics of tested lipid nanoparticles, including luciferase expression levels over MC3 measured from the tested group are listed in the table below.

The test system of data set [8] is luciferase mRNA expression. Briefly: Animal Study 2: bioluminescence of dissected organs. The class given is in vivo, Balb/c mice. How it is done: as §2
Radiance of heart, liver, spleen, lung, kidney, brain and bone marrow were taken at 6 h after administration. The Dissected organs were placed on a black sheet and imaged with IVIS Spectrum CT (PerkinElmer, Hopkinton, MA). To quantify bioluminescence emission signal, identical regions of interest (ROI) were positioned to encircle each organ region, the imaging signal was quantitated as Total Flux [p/s].

[9] abbreviates: hEPO mRNA, cationic lipid/DSPC/cholesterol/PEG-lipid 50:10:38.5:1.5.
Where [10] appears, read: dissected organ, 6 h after administration, 0.25 mg/kg i.v., ROI 1-3, 0.25 mg/kg.

In turn, `CCCCCCCCC(CCCCCC)COC(=O)CCCCCN(CCO)CCCCC(COC(=O)CCCCCCC)COC(=O)CCCCCCC` (stereo not shown) [Compound 10] had a Polydispersity in data set [1] (hEPO mRNA) of 0.084. In addition, in data set [1] (setting [9]), the “Size (nm)” value worked out at 61.45 nm. The Encapsulation efficiency in data set [2] (hEPO mRNA) came to 91.36%. For the same compound, the “Apparent pKa” value in data set [3] (TNS assay (Table 2)) was 6.624. Moreover, the “EPO expression over MC3” value in data set [4] was “B (≥1 and <2)”. For the same compound, in data set [5], the “% Dose Remaining in Liver Tissue, 6 h” value is listed as 0.981%; the “% Dose Remaining in Liver Tissue, 24 h” value stood at 0.19%; the “% Dose Remaining in Liver Tissue, 48 h” value is 0.038%.
Take `CCCCC/C=C\C/C=C\CCCCCCCCC(CCCCCCCC/C=C\C/C=C\CCCCC)OC(=O)CCCN(C)C` [MC3, dilinoleylmethyl-4-dimethylaminobutyrate]: the “% Dose Remaining in Liver Tissue, 6 h” value in data set [6] (6 h) is on record as 69.39%. For the same compound, the “% Dose Remaining in Liver Tissue, 24 h” value in data set [6] (24 h) was found to be 61.63%. The “% Dose Remaining in Liver Tissue, 48 h” value in data set [6] (48 h) turned out to be 52.47%.
In the case of `CCCCC/C=C\C/C=C\CCCCCCCC(=O)OCCCCCCN(CCCCC(COC(=O)CCCCCCC)COC(=O)CCCCCCC)C1CC(O)C1` (stereo not shown) [Compound 58], in data set [1] (luciferase mRNA), the Polydispersity amounted to 0.053 and the “Size (nm)” value was 81.27 nm. Also, the Encapsulation efficiency in data set [2] (luciferase mRNA) is reported as 89.76%. The “Apparent pKa” value in data set [3] (TNS assay (Table 3)) is 6.948. For the same compound, the “luciferase expression over MC3” value in data set [7] is “A (≥2)”.
In the case of `CCCCCCCCCCCOC(=O)CCCCCN(CCO)CCCOC(COC(=O)CCCCCCC)COC(=O)CCCCCCC` [Compound 8], the Polydispersity in data set [1] (hEPO mRNA) is reported as 0.051. The “Size (nm)” value in data set [1] (setting [9]) was determined as 95.24 nm. The compound further returned an Encapsulation efficiency in data set [2] (hEPO mRNA) of 84.70%. Besides, in data set [3] (TNS assay (Table 2)), the “Apparent pKa” value is 6.992. In addition, the “EPO expression over MC3” value in data set [4] was “C (≥0.1 and <1)”. Moreover, in data set [5], the “% Dose Remaining in Liver Tissue, 6 h” value is listed as 1.274%; the “% Dose Remaining in Liver Tissue, 24 h” value is 0.068%; the “% Dose Remaining in Liver Tissue, 48 h” value is given as 0%.
As for `CCCCCCCCSSCCOC(=O)CCCCCN(CCCCCO)CCCCC(COC(=O)CCCCCCC)COC(=O)CCCCCCC` [Compound 76], in data set [1] (luciferase mRNA), the Polydispersity amounted to 0.069 and the “Size (nm)” value amounted to 113.16 nm. In data set [2] (luciferase mRNA), this compound came in with an Encapsulation efficiency of 88.12%. Further, the “Apparent pKa” value in data set [3] (TNS assay (Table 3)) is 6.762. Besides, in data set [7], the “luciferase expression over MC3” value was “B (≥1 and <2)”. Moreover, in data set [8] (setting [10]), the “Total Flux [p/s], Brain” value was 4.60E+06 p/s and 4.15E+06 p/s and 5.13E+06 p/s; the “Total Flux [p/s], Liver” value is 1.40E+09 p/s and 9.82E+08 p/s and 1.38E+09 p/s; the “Total Flux [p/s], Lung” value was 5.18E+06 p/s and 5.48E+06 p/s and 4.33E+06 p/s; the “Total Flux [p/s], bone marrow” value is 2.09E+06 p/s and 3.07E+06 p/s and 2.94E+06 p/s. Further, in data set [8] (nanoparticle comprising the compound, organs 6 h after administration), the “luciferase expression in organs (in words)” value was “significant transduction and luciferase expression were observed in liver and spleen; also recorded: high absolute expression in the heart, spleen, lung, kidney, brain”.
Take `CCCCCCCC(=O)OCC(CCCCN(CCCCC(COC(=O)CCCCCCC)COC(=O)CCCCCCC)CCCNc1c(N(CC)CCO)c(=O)c1=O)COC(=O)CCCCCCC` [Compound 60]: in data set [1] (luciferase mRNA), the Polydispersity stood at 0.011 and the “Size (nm)” value was determined as 73.37 nm. Further, the Encapsulation efficiency in data set [2] (luciferase mRNA) worked out at 93.20%. Further, in data set [3] (TNS assay (Table 3)), the “Apparent pKa” value stood at 6.809. In addition, the “luciferase expression over MC3” value in data set [7] was “C (≥0.1 and <1)”.
`CCCCCCCC(=O)OCC(COC(=O)CCCCCCC)OCCCN(CCCOC(COC(=O)CCCCCCC)COC(=O)CCCCCCC)CCN(CCO)C1CCC1` [Compound 9] registered a Polydispersity in data set [1] (hEPO mRNA) of 0.046. Besides, the “Size (nm)” value in data set [1] (setting [9]) is recorded as 111.6 nm. The same compound had an Encapsulation efficiency in data set [2] (hEPO mRNA) of 87.29%. Further, in data set [3] (TNS assay (Table 2)), the “Apparent pKa” value came to 6.558. The “EPO expression over MC3” value in data set [4] is “A (≥2)”. For the same compound, in data set [5], the “% Dose Remaining in Liver Tissue, 6 h” value amounted to 1.071%; the “% Dose Remaining in Liver Tissue, 24 h” value was 0.089%; the “% Dose Remaining in Liver Tissue, 48 h” value was 0%.
In the case of `CCCCCCCCCCCCCCCCCC(=O)OCCCCCCN(CCCCC(COC(=O)CCCCCCC)COC(=O)CCCCCCC)C1CC(O)C1` (stereo not shown) [Compound 57], in data set [1] (luciferase mRNA), the Polydispersity is 0.026 and the “Size (nm)” value is recorded as 86.07 nm. The Encapsulation efficiency in data set [2] (luciferase mRNA) came out at 90.36%. The “Apparent pKa” value in data set [3] (TNS assay (Table 3)) was 7.046. Further, the “luciferase expression over MC3” value in data set [7] was “A (≥2)”.
